Measured values from patent US20250115597A1, “TYK2 INHIBITORS AND COMPOSITIONS AND METHODS THEREOF” (LYNK PHARMACEUTICALS CO. LTD., priority 2021, published 2025).
Where two headings read alike, the source gives them in different places.

Tests used:
[1] = molecular target: T1, Ba/F3-FL-TYK2-P760L cells (Homo sapiens, UniProt P29597, P760L, cells depend on it); experiment: Anti-proliferative assay, Ba/F3-FL-TYK2-P760L cells (Cell-Titer Glo); assay type: cell-based; conditions: 72 h, read-out: BaF3-FL-T2P760L IC50
T1 construct: BaF3-FL-T2P760L (nM)
T1 sequence (P29597 whole entry P760L): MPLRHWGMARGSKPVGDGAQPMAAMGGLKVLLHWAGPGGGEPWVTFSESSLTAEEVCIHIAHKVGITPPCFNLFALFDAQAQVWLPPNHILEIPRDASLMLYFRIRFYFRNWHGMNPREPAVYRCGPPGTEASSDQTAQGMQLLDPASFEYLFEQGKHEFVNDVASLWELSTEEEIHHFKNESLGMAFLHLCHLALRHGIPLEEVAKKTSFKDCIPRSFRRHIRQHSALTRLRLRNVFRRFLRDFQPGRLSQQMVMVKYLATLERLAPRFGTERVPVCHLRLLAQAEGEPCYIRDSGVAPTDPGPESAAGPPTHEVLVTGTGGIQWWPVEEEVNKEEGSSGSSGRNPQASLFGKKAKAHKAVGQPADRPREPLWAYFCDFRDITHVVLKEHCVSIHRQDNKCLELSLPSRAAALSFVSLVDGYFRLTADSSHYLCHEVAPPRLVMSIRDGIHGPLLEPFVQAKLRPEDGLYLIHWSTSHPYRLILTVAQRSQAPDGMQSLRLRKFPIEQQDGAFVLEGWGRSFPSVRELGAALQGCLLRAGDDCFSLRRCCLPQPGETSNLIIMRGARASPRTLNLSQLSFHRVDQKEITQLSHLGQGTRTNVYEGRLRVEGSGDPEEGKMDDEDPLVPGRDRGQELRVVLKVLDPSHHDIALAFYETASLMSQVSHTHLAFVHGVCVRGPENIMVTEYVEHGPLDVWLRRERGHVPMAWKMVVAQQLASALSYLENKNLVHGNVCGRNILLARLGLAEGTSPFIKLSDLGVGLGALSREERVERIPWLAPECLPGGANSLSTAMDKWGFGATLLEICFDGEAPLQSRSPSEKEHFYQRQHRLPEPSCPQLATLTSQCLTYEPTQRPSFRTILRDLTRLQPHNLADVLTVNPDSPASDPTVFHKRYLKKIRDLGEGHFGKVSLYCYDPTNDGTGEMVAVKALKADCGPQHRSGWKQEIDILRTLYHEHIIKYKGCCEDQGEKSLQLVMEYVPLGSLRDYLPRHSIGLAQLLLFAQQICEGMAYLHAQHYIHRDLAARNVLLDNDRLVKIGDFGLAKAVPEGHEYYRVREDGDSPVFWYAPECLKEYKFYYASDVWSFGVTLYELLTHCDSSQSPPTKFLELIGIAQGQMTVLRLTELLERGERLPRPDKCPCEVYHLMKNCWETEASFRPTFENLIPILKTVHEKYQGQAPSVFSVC
Procedure, shortened: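 Compound exposure ran 72 h at 37 °C in 5% CO2 across nine 3-fold concentrations from a 20 μM top dose, added 24 h after seeding 2000 cells/well.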

[2] = Microsomal metabolic stability assay; assay type: in vitro ADME; conditions: pH 7.4, 0.5 mg/mL protein, 1 μM compound
Procedure: Microsomal Metabolic Stability Assay
Microsomes were pre-incubated with test compound or control compounds for 5 min at 37° C. in 100 mM potassium phosphate buffer, pH 7.4, 1.0 mM EDTA. The reaction was initiated by addition of 15 μL of the NADPH regenerating system to 30 μL of each incubation mixture per time point. The final incubation condition was composed of 0.5 mg/mL microsomal protein, 1 μM test article/positive control, 2 mM NADPH. The 0-minute samples were prepared by addition of a 30 μL aliquot of each incubation mixture to 135 μL quench reagent to precipitate proteins. And then a 15 μL aliquot of the NADPH regenerating system was added. At 5, 15, 30 and 45 minutes, the reaction will be stopped by the addition of cold acetonitrile solution containing internal standard. The samples taken at all time points were centrifuged at 5000×g for 15 minutes. 50 μL of supernatant are taken into 96-well assay plates pre-added with 50 μL ultrapure water, and then analyzed by LC/MS/MS.
Concentrations of test articles, control compounds in the samples were determined by using LC/MS/MS method. Plotting of the chromatograms and peak area integrations are carried out by Analyst (AB Sciex).
n the determination of the in vitro elimination constant (ke) of the control compounds, the analyte/internal standard peak area ratios will be converted to percentage remaining (% Remaining) with the following equation: […]
The slope was measured by the natural logarithm of the percentage of the residual compound and time, T1/2 was calculated according to the following formula.

[3] = dog liver microsomes, read-out: Dog LM Clint
[4] = dog liver microsomes, read-out: Dog LM T½
[5] = human liver microsomes, read-out: Human LM Clint
[6] = human liver microsomes, read-out: Human LM T½
[7] = rat liver microsomes, read-out: Rat LM Clint
[8] = rat liver microsomes, read-out: Rat LM T½

GI50 [1] | microsomal CLint at 1 μM [2, 3] | half-life at 1 μM [2, 4] | microsomal CLint at 1 μM [2, 5] | half-life at 1 μM [2, 6] | microsomal CLint at 1 μM [2, 7] | half-life at 1 μM [2, 8] | Structure (SMILES)
585 nM | < 11.5 µL/min/mg | > 120 min | 26.4 µL/min/mg | 52.5 min | 53.8 µL/min/mg | 25.8 min | [2H]C([2H])([2H])NC(=O)c1cnc(Nc2ccn(C)n2)cc1Nc1cn(C)c2c(C)cn(CC)c(=O)c12 [Example 198, 4-((5-Ethyl-1,7-dimethyl-4-oxo-4,5-dihydro-1H-pyrrolo[3,2-c]pyridin-3-yl)amino)-N-(methyl-d3)-6-((1-methyl-1H-pyrazol-3-yl)amino)nicotinamide]
93.5 nM | 108 µL/min/mg | 12.9 min | 17.5 µL/min/mg | 79.4 min | 161 µL/min/mg | 8.61 min | [2H]C([2H])([2H])NC(=O)c1nnc2cc1Nc1cc(cc(-c3ccn(C)n3)c1OC)COCc1nc(ccc1F)N2 [Example 74, 18-Fluoro-10-methoxy-N-(methyl-d3)-11-(1-methyl-1H-pyrazol-3-yl)-15-oxa-2,4,5,8,21-pentaazatetracyclo[15.3.1.1^{3,7}.1^{9,13}]tricosa-1(20),3,5,7(23),9(22),10,12,17(21),18-nonaene-6-carboxamide]
1270 nM | < 11.5 µL/min/mg | > 120 min | < 11.5 µL/min/mg | > 120 min | 13.1 µL/min/mg | 106 min | [2H]C([2H])([2H])NC(=O)c1cnc(NC(=O)C2CC2)cc1Nc1csc2cnn(CC3CC3(F)F)c(=O)c12 (stereo not shown) [Example 191, 6-(Cyclopropanecarboxamido)-4-((5-((2,2-difluorocyclopropyl)methyl)-4-oxo-4,5-dihydrothieno[2,3-d]pyridazin-3-yl)amino)-N-(methyl-d3)nicotinamide]
89.3 nM | 8.46 µL/min/mg | 164 min | 27.8 µL/min/mg | 49.9 min | 126 µL/min/mg | 11 min | CNC(=O)c1cnc(NC(=O)C2CC2)cc1Nc1csc2ccn(C)c(=O)c12 [Example 16, 6-(Cyclopropanecarboxamido)-N-methyl-4-((5-methyl-4-oxo-4,5-dihydrothieno[3,2-c]pyridin-3-yl)amino)nicotinamide]
189 nM | < 11.5 µL/min/mg | > 120 min | < 11.5 µL/min/mg | > 120 min | 23.1 µL/min/mg | 60.1 min | [2H]C([2H])([2H])NC(=O)c1cnc(NC(=O)C2CC2)cc1Nc1csc2cnn(C(C)C)c(=O)c12 [Example 184, 6-(Cyclopropanecarboxamido)-4-((5-isopropyl-4-oxo-4,5-dihydrothieno[2,3-d]pyridazin-3-yl)amino)-N-(methyl-d3)nicotinamide]
30 nM | 30.4 µL/min/mg | 45.6 min | 12.7 µL/min/mg | 110 min | 7.43 µL/min/mg | 187 min | [2H]C([2H])([2H])NC(=O)c1cnc2cc1Nc1cc(cc(-c3ncn(C)n3)c1OC)COCc1nc(ccc1C)N2 [Example 70, 10-Methoxy-N-(methyl-d3)-18-methyl-11-(1-methyl-1H-1,2,4-triazol-3-yl)-15-oxa-2,4,8,21-tetraazatetracyclo[15.3.1.1^{3,7}.1^{9,13}]tricosa-1(20),3,5,7(23),9(22),10,12,17(21),18-nonaene-6-carboxamide]
64.3 nM | 17.8 µL/min/mg | 78 min | < 11.5 µL/min/mg | > 120 min | 20.1 µL/min/mg | 69 min | [2H]C([2H])([2H])NC(=O)c1nnc2cc1Nc1cc(cc(-c3ncn(C4CC4)n3)c1OC)COCc1nc(ccc1F)N2 [Example 82, 11-(1-Cyclopropyl-1H-1,2,4-triazol-3-yl)-18-fluoro-10-methoxy-N-(methyl-d3)-15-oxa-2,4,5,8,21-pentaazatetracyclo[15.3.1.1^{3,7}.1^{9,13}]tricosa-1(20),3,5,7(23),9(22),10,12,17(21),18-nonaene-6-carboxamide]
53.1 nM | < 11.5 µL/min/mg | > 120 min | < 11.5 µL/min/mg | > 120 min | < 11.5 µL/min/mg | > 120 min | [2H]C([2H])([2H])NC(=O)c1cnc2cc1Nc1cc(cc(-c3ncc(OC)cn3)c1OC)COCc1nc(ccc1F)N2 [Example 95, 18-Fluoro-10-methoxy-11-(5-methoxypyrimidin-2-yl)-N-(methyl-d3)-15-oxa-2,4,8,21-tetraazatetracyclo[15.3.1.1^{3,7}.1^{9,13}]tricosa-1(20),3,5,7(23),9(22),10,12,17(21),18-nonaene-6-carboxamide]
180 nM | 25 µL/min/mg | 55.4 min | 45.2 µL/min/mg | 30.7 min | 80 µL/min/mg | 17.3 min | COC(=O)c1cnc(NC(=O)C2CC2)cc1Nc1ncn2ccn(CC(F)(F)F)c(=O)c12 [Example 47, Methyl 6-(cyclopropanecarboxamido)-4-((8-oxo-7-(2,2,2-trifluoroethyl)-7,8-dihydroimidazo[1,5-a]pyrazin-1-yl)amino)nicotinate]
29.1 nM | 93.8 µL/min/mg | 14.8 min | 76 µL/min/mg | 18.2 min | 46.8 µL/min/mg | 29.6 min | [2H]C([2H])([2H])NC(=O)c1cnc(Nc2ccc(F)cn2)cc1Nc1ccc2cnn(C([2H])([2H])[2H])c2c1OC [Example 141, 6-((5-Fluoropyridin-2-yl)amino)-4-((7-methoxy-1-(methyl-d3)-1H-indazol-6-yl)amino)-N-(methyl-d3)nicotinamide]
40.3 nM | 8.97 µL/min/mg | 155 min | 27.8 µL/min/mg | 50 min | 26.2 µL/min/mg | 52.9 min | [2H]C([2H])([2H])NC(=O)c1cnc2nc1Nc1cc(cc(-c3ncn(C)n3)c1OC)COCc1cc(F)cc(c1)N2 [Example 79, 19-Fluoro-10-methoxy-N-(methyl-d3)-11-(1-methyl-1H-1,2,4-triazol-3-yl)-15-oxa-2,4,8,23-tetraazatetracyclo[15.3.1.1^{3,7}.1^{9,13}]tricosa-1(21),3,5,7(23),9(22),10,12,17,19-nonaene-6-carboxamide]
327 nM |  |  |  |  |  |  | [2H]C([2H])([2H])NC(=O)c1cnc(NC(=O)C2CC2)cc1Nc1cn(C)c2ccn(C(C)C(F)(F)F)c(=O)c12 (single isomer, unassigned) [Example 190B, (S*)-6-(Cyclopropanecarboxamido)-N-(methyl-d3)-4-((1-methyl-4-oxo-5-(1,1,1-trifluoropropan-2-yl)-4,5-dihydro-1H-pyrrolo[3,2-c]pyridin-3-yl)amino)nicotinamide]
7980 nM |  |  |  |  |  |  | [2H]C([2H])([2H])NC(=O)c1nnc2cc1Nc1cc(cc(-c3ccc(F)cc3)c1OC)COCc1nc(ccc1F)N2 [Example 73, 18-Fluoro-11-(4-fluorophenyl)-10-methoxy-N-(methyl-d3)-15-oxa-2,4,5,8,21-pentaazatetracyclo[15.3.1.1^{3,7}.1^{9,13}]tricosa-1(20),3,5,7(23),9(22),10,12,17(21),18-nonaene-6-carboxamide]
7820 nM |  |  |  |  |  |  | CNC(=O)c1nnc(Nc2ccc(F)cn2)cc1Nc1cccc(OC2CCOCC2)c1OC [Example 25, 6-((5-Fluoropyridin-2-yl)amino)-4-((2-methoxy-3-((tetrahydro-2H-pyran-4-yl)oxy)phenyl)amino)-N-methylpyridazine-3-carboxamide]
199 nM |  |  |  |  |  |  | [2H]C([2H])([2H])NC(=O)c1cnc(Nc2cnn(C3CCOCC3)c2)nc1Nc1cccc(-c2ncn(C)n2)c1OC [Example 30, 4-((2-Methoxy-3-(1-methyl-1H-1,2,4-triazol-3-yl)phenyl)amino)-N-(methyl-d3)-2-((1-(tetrahydro-2H-pyran-4-yl)-1H-pyrazol-4-yl)amino)pyrimidine-5-carboxamide]
912 nM |  |  |  |  |  |  | [2H]C([2H])([2H])NC(=O)c1cnc(NC(=O)C2CC2)cc1Nc1csc2cnn(C(C)C(F)(F)F)c(=O)c12 (single isomer, unassigned) [Example 185B, (S*)-6-(Cyclopropanecarboxamido)-N-(methyl-d3)-4-((4-oxo-5-(1,1,1-trifluoropropan-2-yl)-4,5-dihydrothieno[2,3-d]pyridazin-3-yl)amino)nicotinamide]
